Data on 2 compounds can be found in patent US10414778B2, “Methods for treatment of resistant cancer” (New Mexico Tech University Research Park Corporation, priority 2016, dated 2019).

Holding throughout (type): cell-based, human
One experiment deals with T98G cells. Description: MTT growth inhibition, T98G glioma. Particulars: Homo sapiens, T98G. The method, then: (§1) Human cancer cell lines were obtained from the American Type Culture Collection (ATCC, Manassas, Va., USA), the European Collection of Cell Culture (ECACC, Salisbury, UK), and the Deutsche Sammlung von Mikroorganismen und Zellkulturen (DSMZ, Braunschweig, Germany). Human cervical adenocarcinoma HeLa cells were cultured in DMEM supplemented with 10% fetal bovine serum (FBS). Human mammary carcinoma MCF-7 cells were cultured in RPMI supplemented with 10% FBS. The U87 cells (ATCC HTB-14) were cultured in DMEM culture medium, while the A549 cells (DSMZ ACC107) were cultured in RPMI culture medium supplemented with 10% heat-inactivated FBS. The GBM Hs683 (ATCC HTB-138) and the T98G (ATCC CRL-1690) cell lines were cultivated in DMEM supplemented with 10% FBS. The GBM U251 cells (ECACC code 09063001) were cultured in 10% MEM. The human uterine sarcoma MES-SA and MES-SA/Dx5 cells were cultured in RPMI-1640 medium supplemented with 10% FBS with MES SA/Dx5 maintained in the presence of 500 nM Doxorubicin (Sigma™). The U373 glioblastoma cells (ECACC 08061901) were cultured in RPMI culture medium supplemented with 10% heat-inactivated FBS.
(§2) All compounds were dissolved in DMSO at a concentration of either 100 mM or 50 mM prior to cell treatment. The cells were trypsinized and seeded at various cell concentrations depending on the cell type. The cells were grown for 24 h to 72 h, treated with compounds at concentrations ranging from 0.001 to 100 μM, and incubated for 48, 72, or 96 h in 100 or 200 μL media depending on the cell line used. Cells treated with 0.1% DMSO were used as a negative control, and cells treated with 1 μM phenyl arsine oxide (PAO) were used as a positive control.
(§3) Compound 4l was evaluated for in vitro growth inhibition against a panel of cancer cell lines, including U373, U251, U87, T98G, human GBM, and A549 NSCLC. […] Compound 4l was also evaluated for in vitro growth inhibition against the apoptosis-sensitive tumor model Hs683 anaplastic oligodendroglioma as a reference.
(§4) Due to their high potencies, compounds 5l and 5g were used to determine the effects of the compounds on drug-resistant tumor cells. Drug-resistant cell lines (i.e., glioma: Hs683, U373, U251, U87, T98G; lung cancer: A549, H2073; uterine carcinoma: MES-SA/Dx5) were complemented with drug-sensitive cell lines, H1993 lung cancer and MES-SA uterine cancer, which were used as controls. Bulbispermine and paclitaxel were also used as controls. The GI50 values were calculated after 48-96 hours of treatment with the indicated compounds in replicate using the MTT growth assay.

The subject of another experiment is U87 cells. Description: MTT growth inhibition, U87 glioma. Conditions: Homo sapiens, U-87 MG. The method, then:
as §1, §2, §3, §4

In another experiment the test system is Hs683 cells. Description: MTT growth inhibition, Hs683 glioma. Particulars: Homo sapiens. As to the method:
as §1, §2, §3, §4

In the next experiment the test system is MES-SA/Dx5 cells. The experiment in a line: MTT growth inhibition, MDR uterine sarcoma MES-SA/Dx5. Particulars: for GI50: Homo sapiens, MES-SA/Dx5, MTT. The method, then: as §1, §2
Compound 4l was also evaluated against the MDR uterine sarcoma cell line (MES-SA/Dx5 to evaluate whether the compounds of the invention were substrates for the MDR cancer efflux systems. The MES-SA/Dx5 cell line was established from the parent uterine sarcoma MES-SA, grown in the presence of increasing concentrations of doxorubicin and is known to be resistant to a number of P-gp substrates.
The selection of doxorubicin-resistant cells (MES-SA/Dx5 cell line) was performed by splitting the cells and allowing the cells to adhere overnight. The next day, the cells were initially exposed to a DOX concentration of 100 nM, which represented the GI50 concentration. The cells were maintained at this DOX concentration until their growth rate reached that of the untreated cells. The DOX concentration was then increased in two-fold increments following the same growth criteria at each concentration to a final DOX concentration of 500 nM. Each new DOX concentration required approximately 2 passages to reach the growth rate of the untreated cells.
as §4

Another experiment deals with U251 cells. The experiment in a line: MTT growth inhibition, U251 glioma. Particulars: Homo sapiens. As to the method:
as §1, §2, §3, §4

A further experiment concerns A549 cells. The experiment in a line: MTT growth inhibition, A549 NSCLC. The method, then:
as §1, §2
Drug-resistant cell lines (i.e., glioma: Hs683, U373, U251, U87, T98G; lung cancer: A549, H2073; uterine carcinoma: MES-SA/Dx5) were complemented with drug-sensitive cell lines, H1993 lung cancer and MES-SA uterine cancer, which were used as controls. […] The GI50 values were calculated after 48-96 hours of treatment with the indicated compounds in replicate using the MTT growth assay.
Compounds 5l and 5g were further tested using the A549 lung cancer cell line to determine a dose-response effect on apoptosis-resistant cells. (FIGS. 4-7). […] The MTT assay was performed in four replicates after 48 hours of treatment with the indicated compounds relative to a DMSO control.

Read-outs that look alike come from different tables or passages of the source.

Turning to `O=C1C=CC2(C=C1)CCN(C(=O)C(F)(F)F)Cc1c2sc2ccccc12` [Compound 4l], the GI50 in the experiment on T98G cells (Table 3, 48-96 h treatment, read-out: GI50 in vitro values, glioma T98G) is 15 µM; in the experiment with U87 cells (Table 3, 48-96 h treatment, read-out: GI50 in vitro values, glioma U87), 6 µM; with Hs683 cells (Hs 683, Table 3, 48-96 h treatment, read-out: GI50 in vitro values, glioma Hs683), 5 µM; in the experiment on MES-SA/Dx5 cells (Table 3, 48-96 h treatment, read-out: GI50 in vitro values, uterine sarcoma MES-SA/Dx5) it was 5 µM; with U251 cells (U-251, Table 3, 48-96 h treatment, read-out: GI50 in vitro values, glioma U251) it was 4 µM. Also, the “variation in activity, MDR cell line versus parent cell line” value with MES-SA/Dx5 cells (MES-SA/Dx5 versus MES-SA) is listed as “small variation in activity”.

As to `O=C1C=C[C@]23CC[N@](Cc4c2sc2ccccc42)[C@H]3C1` [Compound 5l], the GI50 was 7 µM in the experiment with T98G cells (Table 5, 48-96 hours of treatment, read-out: GI50, Glioma T98G); 5 µM in the experiment with U87 cells (Table 5, 48-96 hours of treatment, read-out: GI50, Glioma U87); 6 µM with Hs683 cells (Hs 683, Table 5, 48-96 hours of treatment, read-out: GI50, Glioma Hs683); 4 µM in the experiment with A549 cells (Homo sapiens, Table 5, 48-96 hours of treatment, read-out: GI50, Lung Cancer A549); 7 µM in the experiment on MES-SA/Dx5 cells (Table 5, 48-96 hours of treatment, read-out: GI50, Sarcoma MES-SA/Dx5); 5 µM in the experiment with U251 cells (U-251, Table 5, 48-96 hours of treatment, read-out: GI50, Glioma U251). Moreover, the “anti-proliferative activity, dose-response (absorbance at 595 nm)” value in the experiment on A549 cells (48 hours, up to 100 μM, FIGS. 4-7) is “inhibited proliferation of the cells in a dose-dependent manner”.
